2 compounds from ChEMBL document CHEMBL5537157, “Selective Antitumor Effect and Lower Toxicity of Mitochondrion-Targeting Derivatization of Triptolide” (J Med Chem, 2024) can be followed below.

Calls of active or inactive are those of the source. No cut-off for these calls is given here. Some results are limits rather than exact numbers.

One data set concerns HepG2. Nature of the data set: Cytotoxicity against human HepG2 cells assessed as cell growth inhibition at 4.5 to 10 nM incubated for 48 hrs by MTT assay relative to control. The data set is classed as functional. The conditions noted are these: dose 4.5-10 nM.
The subject of the next data set is NCI-H460. Description: Cytotoxicity against human NCI-H460 cells assessed as cell growth inhibition at 4.5 to 10 nM incubated for 48 hrs by MTT assay relative to control. The format is functional. Conditions: dose 4.5-10 nM. (In general: Tetrazolium dyes change colour on reduction, which living cells bring about.)
The nature of data set [1]: Cytotoxicity against human BEAS-2B cells assessed as cell growth inhibition at 4.5 to 10 nM incubated for 48 hrs by MTT assay relative to control. The conditions noted are these: dose 4.5-10 nM, read-out: Imax. The data set is classed as toxicity, cell-based.
Data set [2] relates to NCI-H1975. Description: Cytotoxicity against human NCI-H1975 cells assessed as cell growth inhibition at >41.15 nM incubated for 48 hrs by MTT assay relative to control. The data set is classed as functional.
Data set [3] in a line: Developmental toxicity in zebrafish AB zygotes assessed as embryo malformation at 0.5 to 2 uM treated at 6 hrs post-fertilization measured at 24 to 72 hrs post-fertilization. More on the design: species or system Danio rerio. Conditions: in vivo, dose lower 0.5 µM, time lower 18 hrs, dose upper 2 µM, time upper 66 hrs.
Data set [4] can be described thus: Developmental toxicity in zebrafish AB zygotes assessed as decrease in hatching rate at 1 to 4 uM treated at 6 hrs post-fertilization measured at 24 to 72 hrs post-fertilization. Conditions: in vivo, dose lower 1 µM, time lower 18 hrs, dose upper 4 µM, time upper 66 hrs. More on the design: species or system Danio rerio.
A short description of data set [5]: Renal toxicity in zebrafish assessed as FITC dye residue at 0.25 to 1 uM treated for 24 hrs followed by dye treatment measured after 6 hrs by fluorescence microscopy. More on the design: species or system Danio rerio. The conditions noted are these: in vivo, 30 h, dose 0.25-1 µM.
The test system of data set [6] is NCI-H1975. Description: Inhibition of cell viability in human NCI-H1975 cells assessed as cell index at 270 nM measured after 48 hrs by real-time cell analysis. The format is functional.
Another data set concerns BEAS-2B. Nature of the data set: Induction of apoptosis in human BEAS-2B cells at 50 to 400 nM incubated for 24 hrs by Annexin V-FITC/PI staining based flow cytometry. The format is toxicity, cell-based. Conditions: 0.4 µM, dose 50-400 nM.
Data set [7] relates to NCI-H1975. Nature of the data set: Induction of apoptosis in human NCI-H1975 cells at 50 to 400 nM incubated for 24 hrs by Annexin V-FITC/PI staining based flow cytometry. The format is functional, cell-based. Conditions: dose 50-400 nM. A general note: A flow cytometer gives signals particle by particle.
Data set [8] can be described thus: Renal toxicity in zebrafish assessed as yolk sac absorption at 0.5 to 4 uM treated at 3 hrs post-fertilization measured at 48 hrs post-compound treatment by FITC staining based microscopy. Conditions: in vivo, dose 0.5-4 µM. More on the design: species or system Danio rerio.

Consider `CC(C)[C@]12O[C@H]1[C@@H]1O[C@@]13[C@@]1(C)CCC4=C(COC4=O)[C@@H]1C[C@@H]1O[C@@]13C2=O` [TRIPTONIDE], for which the “inhibition (INH)” value in the data set on HepG2 was 80%; with NCI-H1975 [2] it was <50%. Besides, the Imax in the data set with NCI-H460 is reported as ~40%. Moreover, the Emax at 48 h in data set [1] was ~40%. For the same compound, the Activity result in data set [3], in [4] and in [5] was “Toxic” each time.
Turning to `CC(C)[C@]12O[C@H]1[C@@H]1O[C@]13[C@]1(O[C@H]1C[C@H]1C4=C(CC[C@@]13C)C(=O)OC4)[C@@H]2OC(=O)CCCCCCCC[n+]1ccc(/C=C/c2c[nH]c3ccccc23)cc1.[Br-]`, the Activity_index in the data set with NCI-H1975 [6] was 0. Moreover, the Activity entry (in the data set on BEAS-2B; in [8]) was “Non-Toxic” each time. Moreover, the outcome in the data set on NCI-H1975 [7] was Active.
